Biological target: SARS-CoV-2 M^pro (3CL^pro), MBP-tagged 3CL protease (Severe acute respiratory syndrome coronavirus 2, UniProt P0DTD1)
Assay: biochemical

O=C(O)c1cc(C(=O)O)c2c(n1)C(=O)C(=O)c1cc(C(=O)O)[nH]c1-2 [PQQ, 4,5-dioxo-4,5-dihydro-1H-pyrrolo[2,3-f] quinoline-2,7,9-tricarboxylic acid]
IC50: 2800 nM
